Patent US7435832B2, “Crystals including a malic acid salt of a 3-pyrrole substituted 2-indolinone, and compositions thereof” (Pharmacia & Upjohn Company, priority 2001, dated 2008)
Counter-ions that a name gives are not always drawn.

Experiments:
Assay type in all cases: physicochemical
[1] = Dynamic moisture sorption gravimetry (DMSG), hygroscopicity; conditions: for Water absorbed (moisture sorption): across the 0-90% relative humidity range, 25° C.
Method: X-ray diffraction (XRD) patterns were measured on a Scintag X2 diffractometer (Thermo ARL, Ecublens, Switzerland) equipped with a theta-theta goniometer. Melting points were determined using a TA Instruments 2920 differential scanning calorimeter (TA Instruments, New Castle, Del.) with standard crimped pans and a heating rate of 10° C./minute. Hygroscopicity was assessed by dynamic moisture sorption gravimetry (DMSG) using a Controlled Atmosphere Microbalance (Pharmacia Corp., Kalamazoo, Mich.). All chemicals used are available from Aldrich Chemical Co., Milwaukee, Wis., unless otherwise specified. N-[2-(diethylamino)ethyl]-5-[(5-fluoro-1,2-dihydro-2-oxo-3H-indol-3-ylidene)methyl]-2,4-dimethyl-1H-pyrrole-3-carboxamide was prepared as the free base by a procedure similar to that described in Example 80 of PCT International Publication No. WO 01/60814 (Tang et al.).
Dynamic Moisture Sorption Gravimetry (DMSG). DMSG isotherms were collected on the variable temperature controlled atmosphere microbalance. Approximately 10 mg samples were used in the balance. Samples were run as received. The humidity was sequentially set between 0 and 90% relative humidity (RH) in 3% RH steps. The mass was then measured every two minutes. The RH was changed to the next value when the mass of the sample was stable to within 0.5 microgram in 480 seconds. A Visual Basic program was used to control the data collection and export the information to an Excel spreadsheet.

Solubility in water = conditions: in water at 25° C.
Method: The solubility of Crystal Form I of the L-malic acid salt of N-[2-(diethylamino)ethyl]-5-[(5-fluoro-1,2-dihydro-2-oxo-3H-indol-3-ylidene)methyl]-2,4-dimethyl-1H-pyrrole-3-carboxamide was determined to be 5 mg/mL in water at 25° C.

[2] = Solid state stability study of bulk crystals (HPLC analysis, PXRD); conditions: for Purity (Area %) / Total Impurities (Area %): HPLC
From the text: As referred to in the present application, “stable” in bulk drug stability tests means that at least about 97% by weight, preferably at least about 98% by weight, and more preferably at least about 99% by weight of the bulk drug remains unchanged after storage under the indicated conditions for the indicated time.
A solid state stability study of Crystal Form I of the L-malic acid salt of N-[2-(diethylamino)ethyl]-5-[(5-fluoro-1,2-dihydro-2-oxo-3H-indol-3-ylidene)methyl]-2,4-dimethyl-1H-pyrrole-3-carboxamide was also conducted (Table 2).

Structure (SMILES)	Water absorbed (moisture sorption) [1]	solubility (Solubility in water)	Purity (Area %) ([2]; 2 weeks at 60° C./75% RH)	Total Impurities (Area %) ([2]; 2 weeks at 60° C./75% RH)	Purity (Area %) ([2]; 2 weeks at 60° C./ambient RH)	Total Impurities (Area %) ([2]; 2 weeks at 60° C./ambient RH)	Purity (Area %) ([2]; 2 weeks at 80° C./ambient RH)	Total Impurities (Area %) ([2]; 2 weeks at 80° C./ambient RH)	Purity (Area %) ([2]; 4 weeks at 60° C./75% RH)	Total Impurities (Area %) ([2]; 4 weeks at 60° C./75% RH)	Purity (Area %) ([2]; 4 weeks at 60° C./ambient RH)	Total Impurities (Area %) ([2]; 4 weeks at 60° C./ambient RH)	Purity (Area %) ([2]; 4 weeks at 80° C./ambient RH)	Total Impurities (Area %) ([2]; 4 weeks at 80° C./ambient RH)	Purity (Area %) ([2]; Initial)	Total Impurities (Area %) ([2]; Initial)	Degradation after aging ([2]; four weeks at 60° C./ambient RH, 60° C./75% RH and 80° C./ambient RH)	Change in crystal form by powder X-ray diffraction ([2]; two-week stability samples)	Water absorbed upon exposure to humidity ([1]; 80% relative humidity)
CCN(CC)CCNC(=O)c1c(C)[nH]c(/C=C2\C(=O)Nc3ccc(F)cc32)c1C [Crystal Form I, L-malic acid salt of N-[2-(diethylamino)ethyl]-5-[(5-fluoro-1,2-dihydro-2-oxo-3H-indol-3-ylidene)methyl]-2,4-dimethyl-1H-pyrrole-3-carboxamide]	less than 0.5%	5000 µg/mL	99.6 Area %	1.2 Area %	98.2 Area %	1.1 Area %	99.5 Area %	1.2 Area %	100.1 Area %	2.2 Area %	100.4 Area %	1.2 Area %	98.0 Area %	3.1 Area %	99.7 Area %	1.5 Area %	no significant degradation	no change in crystal form	–
CCN(CC)CCNC(=O)c1c(C)[nH]c(/C=C2\C(=O)Nc3ccc(F)cc32)c1C [Crystal Form II, L-malic acid salt of N-[2-(diethylamino)ethyl]-5-[(5-fluoro-1,2-dihydro-2-oxo-3H-indol-3-ylidene)methyl]-2,4-dimethyl-1H-pyrrole-3-carboxamide]	over 15%	–	–	–	–	–	–	–	–	–	–	–	–	–	–	–	–	–	at least 5 % by weight
